Measurements from the supplement of paper PMC10307832.

Experiments:
Experiment in all cases: relative viability (nuclei count vs DMSO), 5 days (fraction); higher = more cells survive
[1] = tested on: A-427
How it was run: (§1)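 Five library-drug doses in √10 steps were combined with a fixed anchor-drug dose, or a single drug was given alone, by pin tool to lung cancer cell lines in 1536-well plates the day after seeding. Nuclei were stained and counted after 5 days. Relative viability is the nuclei count in treated wells over that in vehicle wells, taken as the median of duplicate plates.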

[2] = tested on: LC-2-ad
How it was run: as §1

[3] = tested on: HCC-15
How it was run: as §1

[4] = tested on: NCI-H358
How it was run: as §1

[5] = tested on: NCI-H1975
How it was run: as §1

[6] = tested on: RERF-LC-KJ
How it was run: as §1

[7] = tested on: NCI-H2228
How it was run: as §1

[8] = tested on: PC-3 [JPC-3]
How it was run: as §1

[9] = tested on: NCI-H2126
How it was run: as §1

[10] = tested on: LXF-289
How it was run: as §1

[11] = tested on: HOP-62
How it was run: as §1

[12] = tested on: NCI-H1755
How it was run: as §1

[13] = tested on: NCI-H647
How it was run: as §1

[14] = tested on: NCI-H2342
How it was run: as §1

[15] = tested on: NCI-H2347
How it was run: as §1

[16] = tested on: HCC-78
How it was run: as §1

[17] = tested on: SK-LU-1
How it was run: as §1

[18] = tested on: NCI-H522
How it was run: as §1

[19] = tested on: NCI-H1734
How it was run: as §1

[20] = tested on: SW 1573
How it was run: as §1

[21] = tested on: NCI-H1792
How it was run: as §1

[22] = tested on: NCI-H1915
How it was run: as §1

With `COc1cc2nccc(Oc3ccc(NC(=O)Nc4cc(C)on4)c(Cl)c3)c2cc1OC` [Tivozanib] + COc1cccc2cc(-c3nc([C@H]4CC[C@H](C(=O)O)CC4)n4ncnc(N)c34)[nH]c12 [OSI-027] (partner 0.5 µM) the relative viability ([1]; first compound 0.005 µM) was 0.458, the relative viability ([1]; first compound 0.01581 µM) was 0.492 and the relative viability ([1]; first compound 0.05 µM) was 0.552. It also gave a relative viability ([1]; first compound 0.1581 µM) of 0.434, a relative viability ([1]; first compound 0.5 µM) of 0.368 and a relative viability ([2]; first compound 0.005 µM) of 0.784. It also gave a relative viability ([2]; first compound 0.01581 µM) of 0.834, a relative viability ([2]; first compound 0.05 µM) of 0.812 and a relative viability ([2]; first compound 0.1581 µM) of 0.71. For the same compound, the relative viability ([2]; first compound 0.5 µM) was 0.512, the relative viability ([3]; first compound 0.005 µM) was 0.547 and the relative viability ([3]; first compound 0.01581 µM) was 0.672. It also gave a relative viability ([3]; first compound 0.05 µM) of 0.711, a relative viability ([3]; first compound 0.1581 µM) of 0.571 and a relative viability ([3]; first compound 0.5 µM) of 0.61. The relative viability ([4]; first compound 0.005 µM) was 0.751, the relative viability ([4]; first compound 0.01581 µM) was 0.776 and the relative viability ([4]; first compound 0.05 µM) was 0.674. For the same compound, the relative viability ([4]; first compound 0.1581 µM) was 0.332, the relative viability ([4]; first compound 0.5 µM) was 0.727 and the relative viability ([5]; first compound 0.005 µM) was 0.673. For the same compound, the relative viability ([5]; first compound 0.01581 µM) was 0.634, the relative viability ([5]; first compound 0.05 µM) was 0.709 and the relative viability ([5]; first compound 0.1581 µM) was 0.565. It also gave a relative viability ([5]; first compound 0.5 µM) of 0.475, a relative viability ([6]; first compound 0.005 µM) of 0.458 and a relative viability ([6]; first compound 0.01581 µM) of 0.62. It also gave a relative viability ([6]; first compound 0.05 µM) of 0.657, a relative viability ([6]; first compound 0.1581 µM) of 0.415 and a relative viability ([6]; first compound 0.5 µM) of 0.59. It also gave a relative viability ([7]; first compound 0.005 µM) of 0.492, a relative viability ([7]; first compound 0.01581 µM) of 0.54 and a relative viability ([7]; first compound 0.05 µM) of 0.615. For the same compound, the relative viability ([7]; first compound 0.1581 µM) was 0.488, the relative viability ([7]; first compound 0.5 µM) was 0.485 and the relative viability ([8]; first compound 0.005 µM) was 0.665. For the same compound, the relative viability ([8]; first compound 0.01581 µM) was 0.722, the relative viability ([8]; first compound 0.05 µM) was 0.774 and the relative viability ([8]; first compound 0.1581 µM) was 0.591. The relative viability ([8]; first compound 0.5 µM) was 0.733, the relative viability ([9]; first compound 0.005 µM) was 0.655 and the relative viability ([9]; first compound 0.01581 µM) was 0.701. It also gave a relative viability ([9]; first compound 0.05 µM) of 0.776, a relative viability ([9]; first compound 0.5 µM) of 0.691 and a relative viability ([10]; first compound 0.005 µM) of 0.812. The relative viability ([10]; first compound 0.01581 µM) was 0.786, the relative viability ([10]; first compound 0.05 µM) was 0.845 and the relative viability ([10]; first compound 0.1581 µM) was 0.638. The relative viability ([10]; first compound 0.5 µM) was 0.618, the relative viability ([11]; first compound 0.005 µM) was 0.838 and the relative viability ([11]; first compound 0.01581 µM) was 0.829. The relative viability ([11]; first compound 0.05 µM) was 0.798, the relative viability ([11]; first compound 0.1581 µM) was 0.587 and the relative viability ([11]; first compound 0.5 µM) was 0.817. The relative viability ([12]; first compound 0.005 µM) was 0.685, the relative viability ([12]; first compound 0.01581 µM) was 0.77 and the relative viability ([12]; first compound 0.05 µM) was 0.733. It also gave a relative viability ([12]; first compound 0.1581 µM) of 0.646, a relative viability ([12]; first compound 0.5 µM) of 0.612 and a relative viability ([13]; first compound 0.005 µM) of 0.74. The relative viability ([13]; first compound 0.01581 µM) was 0.618, the relative viability ([13]; first compound 0.05 µM) was 0.728 and the relative viability ([13]; first compound 0.1581 µM) was 0.526. The relative viability ([13]; first compound 0.5 µM) was 0.658, the relative viability ([14]; first compound 0.005 µM) was 0.67 and the relative viability ([14]; first compound 0.01581 µM) was 0.556. It also gave a relative viability ([14]; first compound 0.05 µM) of 0.644, a relative viability ([14]; first compound 0.5 µM) of 0.562 and a relative viability ([15]; first compound 0.01581 µM) of 0.373. For the same compound, the relative viability ([15]; first compound 0.05 µM) was 0.262, the relative viability ([15]; first compound 0.5 µM) was 0.408 and the relative viability ([16]; first compound 0.005 µM) was 0.326. The relative viability ([16]; first compound 0.01581 µM) was 0.369, the relative viability ([16]; first compound 0.05 µM) was 0.386 and the relative viability ([16]; first compound 0.1581 µM) was 0.31. The relative viability ([16]; first compound 0.5 µM) was 0.316, the relative viability ([17]; first compound 0.005 µM) was 0.343 and the relative viability ([17]; first compound 0.01581 µM) was 0.314. The relative viability ([17]; first compound 0.05 µM) was 0.383, the relative viability ([17]; first compound 0.1581 µM) was 0.24 and the relative viability ([17]; first compound 0.5 µM) was 0.338. It also gave a relative viability ([18]; first compound 0.005 µM) of 0.722, a relative viability ([18]; first compound 0.01581 µM) of 0.788 and a relative viability ([18]; first compound 0.05 µM) of 0.783. It also gave a relative viability ([18]; first compound 0.1581 µM) of 0.677, a relative viability ([18]; first compound 0.5 µM) of 0.604 and a relative viability ([19]; first compound 0.005 µM) of 0.567. For the same compound, the relative viability ([19]; first compound 0.01581 µM) was 0.621, the relative viability ([19]; first compound 0.05 µM) was 0.592 and the relative viability ([19]; first compound 0.1581 µM) was 0.429. It also gave a relative viability ([19]; first compound 0.5 µM) of 0.558, a relative viability ([20]; first compound 0.005 µM) of 0.575 and a relative viability ([20]; first compound 0.01581 µM) of 0.633. It also gave a relative viability ([20]; first compound 0.05 µM) of 0.68, a relative viability ([20]; first compound 0.1581 µM) of 0.366 and a relative viability ([20]; first compound 0.5 µM) of 0.447. It also gave a relative viability ([21]; first compound 0.005 µM) of 0.665, a relative viability ([21]; first compound 0.01581 µM) of 0.633 and a relative viability ([21]; first compound 0.05 µM) of 0.68. For the same compound, the relative viability ([21]; first compound 0.1581 µM) was 0.728, the relative viability ([21]; first compound 0.5 µM) was 0.746 and the relative viability ([22]; first compound 0.005 µM) was 0.594. For the same compound, the relative viability ([22]; first compound 0.01581 µM) was 0.604, the relative viability ([22]; first compound 0.05 µM) was 0.653 and the relative viability ([22]; first compound 0.1581 µM) was 0.523. For the same compound, the relative viability ([22]; first compound 0.5 µM) was 0.49.
